“Also recorded” adds a separate entry of the source.
B1: Rat AFP: Rat alpha-fetoprotein isolated from neonatal rat serum by immunoaffinity (protein, UniProt P02773 25-611, looked up)
Alpha-fetoprotein: RVLHTNEFGIESTLDSSQCPTEKNMFNVATIVVAQFVQDATKAEVNKMSSDALAAMKENTGDGCLENQLSVFLDEICHETELSNKYGFSGCCNQSGVERHQCLLARKKTAPDSVPPFHFPETAESCPAYEENRAMSINTFIYDVSKRNPFLYAPTILYLAAQYDKAVPACCKADNMEECFQTKRASMAKELREGSMLNEHVCAVIRKFGSRNLQAVLIIKLSQKFPKANITEIRKLALDVAHIHEQCCHGNAMECLQDGESVMTHMCSQQEILSSKTAECCKLPTIELGYCIIHAENGDKPEGLTLNPSEFLGDRNFAQFSSEEKLLFMASFLHEYSRNHPNLPVSVILKTAKSYQEILEKCSQSETPSKCQDNMEEELQKHIQESQALAKQSCNLYQKLGPYYLQNLFLIGYTRKAPQLTSAELIDLTGKMVSIASTCCQLSEEKRSACGEGLADIYIGHLCLRHEANPVNSGINHCCSSSYSNRRLCITSFLRDETYVPPPFSEDKFIFHKDLCQAQGRALQTMKQELLINLVKQKPEMTEEQHAAVTADFSGLLEKCCKDQDQEACFAKEGPKLISKTREALGV
B2: AFP: Alpha-fetoprotein isolated from human cord blood, more than 99% purity (protein, UniProt P02771 19-609, looked up)
Alpha-fetoprotein: RTLHRNEYGIASILDSYQCTAEISLADLATIFFAQFVQEATYKEVSKMVKDALTAIEKPTGDEQSSGCLENQLPAFLEELCHEKEILEKYGHSDCCSQSEEGRHNCFLAHKKPTPASIPLFQVPEPVTSCEAYEEDRETFMNKFIYEIARRHPFLYAPTILLWAARYDKIIPSCCKAENAVECFQTKAATVTKELRESSLLNQHACAVMKNFGTRTFQAITVTKLSQKFTKVNFTEIQKLVLDVAHVHEHCCRGDVLDCLQDGEKIMSYICSQQDTLSNKITECCKLTTLERGQCIIHAENDEKPEGLSPNLNRFLGDRDFNQFSSGEKNIFLASFVHEYSRRHPQLAVSVILRVAKGYQELLEKCFQTENPLECQDKGEEELQKYIQESQALAKRSCGLFQKLGEYYLQNAFLVAYTKKAPQLTSSELMAITRKMAATAATCCQLSEDKLLACGEGAADIIIGHLCIRHEMTPVNPGVGQCCTSSYANRRPCFSSLVVDETYVPPAFSDDKFIFHKDLCQAQGVALQTMKQEFLINLVKQKPQITEEQLEAVIADFSGLLEKCCQGQEQEVCFAEEGQKLISKTRAALGV

Experiments:
[1] = biological target: T1, human AFP (Homo sapiens, UniProt P02771); experiment: Competitive substitution of [3H]arachidonic acid from the AFP binding site (Scatchard)
T1 construct: from tissue; host or cells: human cord blood
Procedure: To determine N-AAP affinity to human AFP a competitive substitution of [5, 6, 8, 9, 11, 12, 14, 15-^3H] arachidonic from the protein's binding site was used. To tubes containing 0.05 nM AFP in 1 ml 0.1 M bicarbonate buffer and 0.7 nM [3H] arachidonic acid and the increasing amounts of arachidonic acid or N-AAP (5-5000 nM) were added. The tubes were incubated for 2 hr at room temperature. To separate protein-bound and free fractions of [3H] arachidonic acid 0.5 ml of 0.5% suspension of activated carbon was added to each tube and incubated at 4° C. for 30 min. The carbon was sedimented by centrifugation at 3000 g, aliquots were added to 10 ml scintillating mixture and the vials were measured in beta-counter.
The binding parameters of arachidonic acid and N-AAP and the number of binding sites per protein molecule were calculated according to Scatchard (Scatchard O., Ann. N.Y. Acad. Sci. 51., p 660-664, 1949).

[2] = tested on: random breed male mice; experiment: Acute toxicity, single intravenous injection, method of Litchfield and Wilcoxon; assay type: in vivo, mouse
Procedure: The toxicity of N-AAP was studied in random breed male mice (19-24 g). A water solution of N-AAP was injected once slowly in the tail vein of mice in a range of doses 40-70 mg/kg. Each group of mice included 6 animals, at least The assessment of acute toxicity was carried out according to the method of Litchfield et al. (Litchfield J. T., Wilcoxon F., J. Pharmacol. Exptl. Therap., Vol.96, P. 99-103, 1949).

[3] = tested on: antibody-forming cells (AFC) in the spleen of mice immunized with sheep erythrocytes; experiment: Humoral immune response: count of antibody-forming cells (AFC) in the spleen according to Cunningham; assay type: in vivo, mouse; settings: for relative amount of AFC / total AFC amount: CBA mice, i.v., sheep erythrocytes i.p.; for immunogenic / immunostimulating activity, effect on humoral immune response (in words): mice immunized with sheep erythrocytes
Procedure: The influence of AFPIN-AAP complexes as well as their basic components on humoral immune response was estimated by counting the quantity of antibody-forming cells (AFC) in the spleen.
AFP was administered intravenously to 10 mouse males of CBA line (weight 18-22 g) in a dose of 0.009 mg per capita. Simultaneously 5% sheep erythrocytes suspension was injected peritoneally (0.2 ml per capita) to both control and experimental animals. The control animals were also injected with the equal volume of NaCl isotonic solution intravenously.
The effect of AFP on humoral immune response was analyzed by counting the quantity of AFC in the spleen according to Cunningham (Cunningham A. J., Nature, v.207, p. 1106-1107, 1965) (per 10^6 spleen cells and per spleen).
N-AAP was administered intravenously to 10 mouse males of CBA line (weight 18-22 g) in a dose of 0.09 mg per capita Simultaneously 5% sheep erythrocytes suspension was injected peritoneally (0.2 ml per capita). Control series were injected with 0.15 ml NaCl isotonic solution intravenously. The effect of N-AAP on humoral immune response was analysed by counting the quantity of AFC in the spleen according to Cunningham (per 10^6 spleen cells and per spleen).
(§1) 0.15 ml AFP/N-AAP complex was administered intravenously to 10 mouse males of CBA line (weight 18-22 g) in a dose of 0.009 mg AFP and 0.09 mg N-AAP per capita. Simultaneously 5% sheep erythrocytes suspension was injected peritoneally (0.2 ml per capita). Control series were intravenously injected with equal volumes of NaCl isotonic solution. The effect of the AFP/N-AAP complex on humoral immune response was analyzed by counting the quantity of AFC in the spleen according to Cunningham (per 10^6 spleen cells and per spleen).
as §1, with “0.045” for “0.09”
as §1, with “0.135” for “0.09”, “capita)” for “capita).”
In order to determine the effect of the inventive complex, 0.15 ml AFP/N-AAP complex was administered intravenously to 10 mouse males of CBA line (weight 18-22 g) in the dose of 0.009 mg rat AFP and 0.09 mg N-AAP per capita. Simultaneously 5% sheep erythrocytes suspension was injected peritoneally (0.2 ml per capita). Control series were injected intravenously with equal volumes of isotonic NaCl solution. The effect of rat AFP/N-AAP complex on humoral immune response was analyzed by counting the quantity of AFC in the spleen according to Cunningham (per 10^6 spleen cells and per spleen).

[4] = mice, single i.v. injection in tail vein

Row | Molecule | Ki [1] [nM] | DL10 [2, 4] | DL90 [2, 4] [mg/kg] | DL50 ([2]; mice, single i.v. injection in tail vein, p = 0.05) | therapeutic index ([2]; mouse, in vivo) | relative amount of AFC in comparison with control (in words) ([3]; 5-th day after injection) | relative amount of AFC ([3]; 5-th day after injection) [per 10^6 cells] | total AFC amount ([3]; 5-th day after injection) | immunogenic / immunostimulating activity, effect on humoral immune response (in words) [3] | n (number of binding sites per protein molecule) ([1]; three independent determinations, Scatchard) | total AFC amount in comparison with control (in words) ([3]; 5-th day after injection) | lower relative amount of AFC in comparison with control group ([3]; 5-th day after injection, AFP 0.009 mg per capita i.v.) [%]
1 | CCCCC/C=C\C/C=C\C/C=C\C/C=C\CCCC(=O)NCCOP(=O)(O)O [N-AAP, N-arachidonoyl aminoethylphosphate] | 333 | 46 mg/kg; | 87 | 63 (54.8 ÷ 72.5) mg/kg at p = 0.05; | 10 | not significantly changed | 342.2±28.5 | 36.0±8.7 10^3 per spleen | does not exhibit immunogenic activity; also recorded: no immunogenic activity | – | – | –
2 | CCCCC/C=C\C/C=C\C/C=C\C/C=C\CCCC(=O)O [arachidonic acid, reference compound] | – | – | – | – | – | – | – | – | – | > 1.2 | – | –
3 | B1 | – | – | – | – | – | – | 428.1±11.5 | 60.3±13.5 10^3 per spleen | no immunogenic activity | – | – | –
4 | B2 | – | – | – | – | – | – | 255.5±13 | 23.6±1.5 10^3 per spleen | reduces or does not significantly effect the immunogenic characteristics of sheep erythrocytes | – | not significantly changed | 30
